Results: patent publication US20240254119A1 (THIRD HARMONIC BIO, INC., priority 2022, published 2024)

Legend:
Caco-2 cells = assay: Caco-2 permeability assay; type: in vitro ADME; details: for Caco-2: Papp A-B: Caco-2, apical to basolateral
Experimental: Exemplary compounds were tested for cell permeability in Caco-2, MDCKII-MDR1 and MDCKII-BCRP cell lines with efflux transporter engagement inferred from the efflux ratios determined. Procedures and results are described below. […] This feature of certain compounds is in part due to efflux transporter engagement. See, for instance, exemplary such compounds included in data tables below.
The transport buffer in the study was HBSS with 10.0 mM HEPES at pH 7.40±0.05. Test compound was tested at 2.00 μM bi-directionally in duplicate. Digoxin was tested at 10.0 μM bi-directionally in duplicate, while nadolol and metoprolol were tested at 2.00 μM in A to B direction in duplicate. Final DMSO concentration was adjusted to less than 1%. The plate was incubated for 2 hours in CO2 incubator at 37±1° C., with 5% CO2 at saturated humidity without shaking. And all samples after mixed with acetonitrile containing internal standard were centrifuged at 3200×g for 10 min. For nadolol and metoprolol, 200 μL supernatant solution was diluted with 600 μL ultra-pure water for LC-MS/MS analysis. For digoxin and test compounds, 200 μL supernatant solution was diluted with 200 μL ultra-pure water for LC-MS/MS analysis. Concentrations of test and control compounds in starting solution, donor solution, and receiver solution were quantified by LC-MS/MS methodologies, using peak area ratio of analyte/internal standard.
After transport assay, lucifer yellow rejection assay was applied to determine the Caco-2 cell monolayer integrity.
[…] And permeation of lucifer yellow through the monolayer was measured to evaluate the cellular integrity.
The apparent permeability coefficient Papp (cm/s) was calculated using the equation: Papp=(dCr/dt)×Vr/(A×C0), where dCr/dt is the cumulative concentration of compound in the receiver chamber as a function of time (μM/s); Vr is the solution volume in the receiver chamber (0.075 mL on the apical side, 0.25 mL on the basolateral side); A is the surface area for the transport, i.e. 0.0804 cm^2 for the area of the monolayer; C0 is the initial concentration in the donor chamber (μM).
The efflux ratio was calculated using the equation: Efflux Ratio=Papp (BA)/Papp(AB).
Percent recovery was calculated using the equation: % Solution Recovery=100×[(Vr×Cr)+(Vd×Cd)]/(Vd×C0), where Vd is the volume in the donor chambers (0.075 mL on the apical side, 0.25 mL on the basolateral side); Cd and Cr are the final concentrations of transport compound in donor and receiver chambers, respectively.

wtKIT = biological target: T1, wtKIT (Homo sapiens, UniProt P10721); assay: HTRF biochemical assay, wtKIT (phosphorylation of a peptide substrate); details: Table 4
T1 construct: 1888289AM in the reaction mixtures
T1 sequence (P10721 26-976): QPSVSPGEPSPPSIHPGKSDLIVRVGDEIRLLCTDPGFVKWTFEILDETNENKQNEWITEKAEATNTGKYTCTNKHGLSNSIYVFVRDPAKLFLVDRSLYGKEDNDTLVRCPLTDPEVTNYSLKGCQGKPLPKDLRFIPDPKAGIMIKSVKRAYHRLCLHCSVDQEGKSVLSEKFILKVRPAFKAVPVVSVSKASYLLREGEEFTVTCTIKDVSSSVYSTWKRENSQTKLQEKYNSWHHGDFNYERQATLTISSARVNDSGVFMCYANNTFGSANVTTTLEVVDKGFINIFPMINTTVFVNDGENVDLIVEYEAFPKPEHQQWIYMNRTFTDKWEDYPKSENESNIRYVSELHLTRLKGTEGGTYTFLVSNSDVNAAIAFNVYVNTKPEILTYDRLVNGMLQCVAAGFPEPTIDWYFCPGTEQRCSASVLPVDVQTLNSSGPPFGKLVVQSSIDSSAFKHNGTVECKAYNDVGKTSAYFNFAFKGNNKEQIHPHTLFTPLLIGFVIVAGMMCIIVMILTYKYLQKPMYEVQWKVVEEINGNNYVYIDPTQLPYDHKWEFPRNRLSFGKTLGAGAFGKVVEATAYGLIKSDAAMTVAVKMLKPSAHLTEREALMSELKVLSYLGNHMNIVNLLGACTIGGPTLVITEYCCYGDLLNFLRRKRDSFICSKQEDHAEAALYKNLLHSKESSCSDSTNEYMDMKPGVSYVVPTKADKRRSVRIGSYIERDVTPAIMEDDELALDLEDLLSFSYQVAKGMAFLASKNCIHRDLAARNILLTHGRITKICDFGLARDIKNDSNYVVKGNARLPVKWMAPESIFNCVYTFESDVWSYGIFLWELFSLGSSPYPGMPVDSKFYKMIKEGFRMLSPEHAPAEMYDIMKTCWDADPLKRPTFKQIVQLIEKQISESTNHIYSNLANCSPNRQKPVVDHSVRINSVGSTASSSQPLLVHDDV
Summary of the method: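 wtKIT (5.0 nM) phosphorylating 1 µM FAM-labelled peptide with 400 µM ATP and 10 mM MnCl2 in 100 mM HEPES pH 7.5, 1% DMSO, 3 h at 25 °C. EDTA quench; phosphopeptide detected with anti-phosphotyrosine antibody by HTRF. Enzyme titrated for 10-20% substrate conversion.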

| Structure (SMILES) | Caco-2: Efflux Ratio (Caco-2 cells) | Caco-2: Papp A-B (Caco-2 cells) | IC50 (wtKIT) [nM] |
| --- | --- | --- | --- |
| Cc1ccc(-c2noc(C3CCC(F)C3)n2)cc1NC(=O)c1cnc2ccccn12 (racemic) [Compound I-319] | 0.83 | 16 10^−6 cm/s | – |
| Cc1ccc(-c2noc([C@H]3CCC(=O)N3)n2)cc1NC(=O)c1cnc2ccccn12 (racemic) [Compound I-327] | 102 | 0.27 10^−6 cm/s | – |
| Cc1ccc(-c2noc(C3(C)CC(F)(F)CN3)n2)cc1NC(=O)c1cnc2ccccn12 (racemic) [Compound I-328] | 1.02 | 18.2 10^−6 cm/s | – |
| Cc1ccc(-c2noc(CC(C)O)n2)cc1NC(=O)c1cnc2ccccn12 (racemic) [Compound I-363] | 2.55 | 8.85 10^−6 cm/s | – |
| Cc1ccc(-c2noc(C(C)O)n2)cc1NC(=O)c1cnc2ccccn12 (racemic) [Compound I-364] | 3.09 | 8.39 10^−6 cm/s | – |
| Cc1ccc(-c2noc(C3CCC3F)n2)cc1NC(=O)c1cnc2ccccn12 (racemic) [Compound I-376] | 0.85 | 19.5 10^−6 cm/s | – |
| Cc1ccc(-c2noc(C3CCS(=O)(=O)C3)n2)cc1NC(=O)c1cnc2ccccn12 (racemic) [Compound I-389] | 25.4 | 1.25 10^−6 cm/s | – |
| Cc1ccc(-c2noc(C3CCN3)n2)cc1NC(=O)c1cnc2ccccn12 (racemic) [Compound I-394] | 3.48 | 6.31 10^−6 cm/s | 50 to 500 |
| COc1ccn2c(C(=O)Nc3cc(-c4noc(CC(O)C(F)F)n4)ccc3C)cnc2c1 (single isomer, unassigned) [Compound I-76] | – | – | ≤ 50 |
| COC(=O)N1CC(c2nc(-c3ccc(C)c(NC(=O)c4cnc5cc(O[C@@H](C)CO)ccn45)c3)no2)C1 (single isomer, unassigned) [Compound I-217] | – | – | ≤ 50 |
| Cc1ccc(-c2noc(C(C)NS(C)(=O)=O)n2)cc1NC(=O)c1cnc2ccccn12 (single isomer, unassigned) [Compound I-237] | 57.6 | 0.50 10^−6 cm/s | 50 to 500 |
| Cc1ccc(-c2noc(C(C)NS(C)(=O)=O)n2)cc1NC(=O)c1cnc2ccccn12 (single isomer, unassigned) [Compound I-238] | – | – | 50 to 500 |
| Cc1ccc(-c2noc([C@H]3C[C@@H]3F)n2)cc1NC(=O)c1cnc2cc(COCC(C)(C)O)ccn12 [Compound I-71, N-[5-[5-[(1R,2S)-2-fluorocyclopropyl]-1,2,4-oxadiazol-3-yl]-2-methyl-phenyl]-7-[(2-hydroxy-2-methyl-propoxy)methyl]imidazo[1,2-a]pyridine-3-carboxamide] | – | – | ≤ 50 |
| COCCOCc1ccn2c(C(=O)Nc3cc(-c4noc([C@H]5C[C@@H]5F)n4)ccc3C)cnc2c1 [Compound I-84] | 1.8 | 11.8 10^−6 cm/s | ≤ 50 |
| Cc1ccc(-c2noc([C@H]3C[C@@H]3F)n2)cc1NC(=O)c1cnc2cc(OC(F)(F)F)ccn12 [Compound I-87] | 0.66 | 7.81 10^−6 cm/s | 50 to 500 |
| Cc1ccc(-c2noc([C@H]3C[C@@H]3F)n2)cc1NC(=O)c1cnc2cc(OC(C)C)ccn12 [Compound I-88] | 0.79 | 6.24 10^−6 cm/s | ≤ 50 |
| COc1ccn2c(C(=O)Nc3cc(-c4noc(CC5CC(F)(F)C5)n4)ccc3C)cnc2c1 [Compound I-91] | – | – | ≤ 50 |
| CCOc1ccn2c(C(=O)Nc3cc(-c4noc([C@H]5C[C@@H]5F)n4)ccc3C)cnc2c1 [Compound I-93] | – | – | ≤ 50 |
| COc1ccn2c(C(=O)Nc3cc(-c4noc(C[C@H](C)O)n4)ccc3C)cnc2c1 [Compound I-94] | – | – | ≤ 50 |
| COc1ccn2c(C(=O)Nc3cc(-c4noc(C5CC(F)(F)C5)n4)ccc3C)cnc2c1 [Compound I-96] | – | – | ≤ 50 |
| Cc1ccc(-c2noc([C@H]3C[C@@H]3F)n2)cc1NC(=O)c1cnn2ccccc12 [Compound I-109] | – | – | ≤ 50 |
| Cc1ccc(-c2noc(CC(O)C(F)F)n2)cc1NC(=O)c1cnc2ccccn12 (centres unmarked) [Compound I-114] | 4.4 | 6.74 10^−6 cm/s | ≤ 50 |
| COc1ccc2ncc(C(=O)Nc3cc(-c4noc(C[C@@H](C)O)n4)ccc3C)n2c1 [Compound I-119] | – | – | ≤ 50 |

| Structure (SMILES) | Caco-2: Efflux Ratio (Caco-2 cells) | Caco-2: Papp A-B (Caco-2 cells) | IC50 (wtKIT) [nM] |
| --- | --- | --- | --- |
| Cc1ccc(-c2noc(CC(O)C(F)F)n2)cc1NC(=O)c1cnc2ccccn12 (centres unmarked) [Compound I-122] | – | – | ≤ 50 |
| Cc1ccc(-c2noc(C3COC3)n2)cc1NC(=O)c1cnc2ccccn12 [Compound I-138] | 1.42 | 16.6 10^−6 cm/s | – |
| Cc1nc(-c2ccc(Cl)c(NC(=O)c3cnc4ccccn34)c2)no1 [Compound I-172] | 0.49 | 12.9 10^−6 cm/s | – |
| Cc1nc(-c2ccc(C)c(NC(=O)c3cnc4ccc(N(C)C)cn34)c2)no1 [Compound I-205] | – | – | ≤ 50 |
| Cc1ccc(-c2cnc(N3CC(F)(F)C3)o2)cc1NC(=O)c1cnc2ccccn12 [Compound I-213] | – | – | 50 to 500 |
| CCCS(=O)(=O)N1CC(c2nc(-c3ccc(Cl)c(NC(=O)c4cnc5ccccn45)c3)no2)C1 [Compound I-220] | 0.25 | 16.5 10^−6 cm/s | ≤ 50 |
| COCCS(=O)(=O)N1CC(c2nc(-c3ccc(C)c(NC(=O)c4cnc5ccccn45)c3)no2)C1 [Compound I-235] | – | – | 50 to 500 |
| COC(=O)N1CC(c2nc(-c3ccc(C)c(NC(=O)c4cnc5cc(OC[C@H](C)O)ccn45)c3)no2)C1 [Compound I-262] | – | – | ≤ 50 |
| COC(=O)N1CC(c2nc(-c3ccc(C)c(NC(=O)c4cnc5cc(OC[C@@H](C)O)ccn45)c3)no2)C1 [Compound I-263] | – | – | ≤ 50 |
| Cc1ccc(-c2noc([C@@H](C)O)n2)cc1NC(=O)c1cnc2ccccn12 [Compound I-270] | 3.35 | 8.5 10^−6 cm/s | – |
| Cc1ccc(-c2noc([C@H](C)O)n2)cc1NC(=O)c1cnc2ccccn12 [Compound I-271] | 2.93 | 6.26 10^−6 cm/s | – |
| COC(=O)N1CC(c2nc(-c3ccc(C)c(NC(=O)c4cnn5ccc(Br)cc45)c3)no2)C1 [Compound I-280] | 0.86 | 14 10^−6 cm/s | – |
| CNC(=O)N1CC(c2nc(-c3ccc(C)c(NC(=O)c4cnc5ccccn45)c3)no2)C1 [Compound I-282] | 152 | 0.14 10^−6 cm/s | – |
| Cc1ccc(-c2noc(C3CN(C(=O)CO)C3)n2)cc1NC(=O)c1cnc2ccccn12 [Compound I-287] | 135 | 0.13 10^−6 cm/s | – |
| CCCNc1ccn2c(C(=O)Nc3cc(-c4noc([C@H]5C[C@@H]5F)n4)ccc3C)cnc2c1 [Compound I-304] | 0.92 | 4.31 10^−6 cm/s | – |
| Cc1ccc(-c2noc(C3(N)CC4(CC(F)(F)C4)C3)n2)cc1NC(=O)c1cnc2ccccn12 [Compound I-307] | 1.79 | 9.28 10^−6 cm/s | – |
| Cc1ccc(-c2noc(CC(=O)O)n2)cc1NC(=O)c1cnc2ccccn12 [Compound I-335] | – | – | 50 to 500 |
| O=C(Nc1cc(-c2noc([C@H]3C[C@@H]3F)n2)ccc1Cl)c1cnc2ccccn12 [Compound I-341] | 0.56 | 16.2 10^−6 cm/s | – |
| Cc1ccc(-c2noc(C3(O)CC(F)(F)C3)n2)cc1NC(=O)c1cnc2ccccn12 [Compound I-380] | 3.45 | 7.5 10^−6 cm/s | – |
| Cc1ccc(-c2noc(C3CC(F)C3)n2)cc1NC(=O)c1cnc2ccccn12 (centres unmarked) [Compound I-381] | 0.97 | 17.1 10^−6 cm/s | – |
| Cc1ccc(-c2noc([C@H]3C[C@@H]3F)n2)cc1NC(=O)c1cnc2ccc(C#N)cn12 [Compound I-384] | 0.90 | 16.5 10^−6 cm/s | – |
| Cc1ccc(-c2noc(C3CC(C)(F)C3)n2)cc1NC(=O)c1cnc2ccccn12 (centres unmarked) [Compound I-387] | 0.77 | 14.5 10^−6 cm/s | – |
